Values of other authors as cited in patent publication US8198303B2, “Methods of use and compositions for the diagnosis and treatment of infectious diseases” (Sequella, Inc., priority 2002, dated 2012).

Test system: M. tuberculosis
Details: background statement on ethambutol

CC[C@@H](CO)NCCN[C@@H](CC)CO [ethambutol, Ethambutol]
Minimum Inhibition Concentration (MIC): about 5 μg/ml
